± gives the expanded uncertainty stated by the source.
Assays:
[1] = xn = mol fraction of the nth substance listed; settings: 100 kPa, Liquid, x2 = 0; for viscosity: Concentric cylinders viscometry; for mass density: Vibrating tube method
[2] = refractive index (Na D-line) (dimensionless); xn = mol fraction of the nth substance listed; settings: 100 kPa, Liquid, Standard Abbe refractometry, x2 = 0
[3] = 100 kPa, Liquid; for viscosity: Concentric cylinders viscometry; for mass density: Vibrating tube method
[4] = refractive index (Na D-line) (dimensionless); settings: 100 kPa, Liquid, Standard Abbe refractometry

CCCCO [butan-1-ol] + CN1CCC[C@H]1c1cccnc1
Settings	mass density, [1] [kg/m3]	refractive index, [2]	viscosity, [1] [mPa·s]
293.15 K	809.819 ± 1	1.39922 ± 0.00036	2.914 ± 0.06
298.15 K	805.995 ± 1	1.39719 ± 0.00036	2.564 ± 0.053
303.15 K	802.148 ± 1	1.39517 ± 0.00036	2.258 ± 0.047
308.15 K	798.276 ± 1	1.39311 ± 0.00036	1.994 ± 0.041
313.15 K	794.372 ± 1	1.39102 ± 0.00036	1.777 ± 0.037
318.15 K	790.429 ± 1	1.38896 ± 0.00036	1.589 ± 0.033
323.15 K	786.444 ± 1	1.38688 ± 0.00036	1.372 ± 0.029

CCC(C)O (stereo not given) [butan-2-ol]
Settings	mass density, [3] [kg/m3]	refractive index, [4]	viscosity, [3] [mPa·s]
293.15 K	807.19 ± 1	1.39715 ± 0.00036	3.76 ± 0.077
298.15 K	803.049 ± 1	1.39497 ± 0.00036	3.093 ± 0.064
303.15 K	798.829 ± 1	1.39274 ± 0.00036	2.566 ± 0.053
308.15 K	794.525 ± 1	1.39045 ± 0.00036	2.149 ± 0.044
313.15 K	790.127 ± 1	1.38803 ± 0.00036	1.816 ± 0.038
318.15 K	785.636 ± 1	1.38571 ± 0.00036	1.548 ± 0.032
323.15 K	781.043 ± 1	1.38322 ± 0.00036	1.332 ± 0.028

CCC(C)O (stereo not given) [butan-2-ol] + CN1CCC[C@H]1c1cccnc1
Settings	mass density, [1] [kg/m3]	refractive index, [2]	viscosity, [1] [mPa·s]
293.15 K	807.19 ± 1	1.39715 ± 0.00036	3.76 ± 0.077
298.15 K	803.049 ± 1	1.39497 ± 0.00036	3.093 ± 0.064
303.15 K	798.829 ± 1	1.39274 ± 0.00036	2.566 ± 0.053
308.15 K	794.525 ± 1	1.39045 ± 0.00036	2.149 ± 0.044
313.15 K	790.127 ± 1	1.38803 ± 0.00036	1.816 ± 0.038
318.15 K	785.636 ± 1	1.38571 ± 0.00036	1.548 ± 0.032
323.15 K	781.043 ± 1	1.38322 ± 0.00036	1.332 ± 0.028

OCCCO [propan-1,3-diol]
Settings	mass density, [3] [kg/m3]	refractive index, [4]	viscosity, [3] [mPa·s]
293.15 K	1053.03 ± 1.3	1.43918 ± 0.00053	52.31 ± 1.2
298.15 K	1049.9 ± 1.3	1.43783 ± 0.00053	41.55 ± 0.94
303.15 K	1046.77 ± 1.3	1.43648 ± 0.00053	33.22 ± 0.75
308.15 K	1043.63 ± 1.3	1.43515 ± 0.00053	26.87 ± 0.61
313.15 K	1040.49 ± 1.3	1.43382 ± 0.00053	21.85 ± 0.49
318.15 K	1037.33 ± 1.3	1.4324 ± 0.00053	18.12 ± 0.41
323.15 K	1034.16 ± 1.3	1.43101 ± 0.00053	15.21 ± 0.34

OCCCO [propan-1,3-diol] + CN1CCC[C@H]1c1cccnc1
Settings	mass density, [1] [kg/m3]	refractive index, [2]	viscosity, [1] [mPa·s]
293.15 K	1053.03 ± 1.3	1.43918 ± 0.00053	52.31 ± 1.2
298.15 K	1049.9 ± 1.3	1.43783 ± 0.00053	41.55 ± 0.94
303.15 K	1046.77 ± 1.3	1.43648 ± 0.00053	33.22 ± 0.75
308.15 K	1043.63 ± 1.3	1.43515 ± 0.00053	26.87 ± 0.61
313.15 K	1040.49 ± 1.3	1.43382 ± 0.00053	21.85 ± 0.49
318.15 K	1037.33 ± 1.3	1.4324 ± 0.00053	18.12 ± 0.41
323.15 K	1034.16 ± 1.3	1.43101 ± 0.00053	15.21 ± 0.34
